# Data reported in publication PMC7251097, “Aspartate/asparagine-β-hydroxylase: a high-throughput mass spectrometric assay for discovery of small molecule inhibitors” (Scientific Reports, 2020).
# Where a name gives a salt, the structure may show the parent alone. Read-outs that look alike come from different tables or passages of the source.
# Biological target: T1, His6-AspH315–758 (human aspartate/asparagine-β-hydroxylase, AspH) (Homo sapiens, UniProt Q12797)
# T1 construct: N-Terminally His6-tagged human AspH315–758 (His6-AspH315–758) was produced in E. coli BL21 (DE3) cells; made in house; host or cells: E. coli BL21 (DE3), pET-28a(+) vector
# T1 sequence (Q12797 315-758): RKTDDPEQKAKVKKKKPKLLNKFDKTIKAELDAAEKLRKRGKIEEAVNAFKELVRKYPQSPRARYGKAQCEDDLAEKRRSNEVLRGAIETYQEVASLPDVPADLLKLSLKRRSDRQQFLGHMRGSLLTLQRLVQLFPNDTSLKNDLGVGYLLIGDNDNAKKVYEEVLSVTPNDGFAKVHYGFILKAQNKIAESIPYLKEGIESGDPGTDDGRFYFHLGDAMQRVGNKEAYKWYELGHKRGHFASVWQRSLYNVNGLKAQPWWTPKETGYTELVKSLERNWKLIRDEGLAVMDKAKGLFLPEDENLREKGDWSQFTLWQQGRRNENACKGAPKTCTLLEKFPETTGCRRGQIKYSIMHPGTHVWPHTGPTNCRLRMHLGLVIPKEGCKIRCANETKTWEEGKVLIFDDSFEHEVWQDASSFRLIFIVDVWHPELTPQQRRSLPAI
# Assay: SPE-MS AspH inhibition assay (LOPAC screen at fixed 20 μM and IC50 dose-response), hydroxylation of cyclic peptide hFX-CP101–119
# Type: biochemical
# Conditions: for Plate 5 (% inhibition) / Plate 5 (% conversion): plate 5 (Pfitzer), test compounds at fixed 20 μM; for Plate 5 (% conversion): mean conversion DMSO 32.88
# [1] = LOPAC Plate 4, compound at 20 uM
# [2] = LOPAC Plate 4, compound at 20 uM, substrate conversion
# [3] = LOPAC compound at fixed 20 uM, plate 1, normalised to DMSO and 2,4-PDCA controls
# [4] = LOPAC compound at fixed 20 uM, substrate conversion, plate 1
smiles,measurement,setting,value
Nc1nc2c(ncn2[C@@H]2O[C@H](CO)[C@@H](O)[C@@H]2O)c(=O)[nH]1.O [Ara-G hydrate],% inhibition,[1],-11.19%
same,% conversion,[2],40.29%
NC(N)=NCCCCN=C(N)N [Arcaine sulfate],Plate 1 (% inhibition),[3],-5.14%
same,Plate 1 (% conversion),[4],37.60%
C#CCOC(=O)C1=CCCN(C)C1 [Arecaidine propargyl ester hydrobromide],Plate 1 (% conversion),,37.75%
same,Plate 1 (% inhibition),,-5.59%
COC(=O)C1=CCCN(C)C1 [Arecoline hydrobromide],Plate 1 (% conversion),,37.04%
same,Plate 1 (% inhibition),,-3.47%
CC1CNc2c(cccc2S(=O)(=O)N[C@@H](CCCNC(=N)N)C(=O)N2CC[C@@H](C)C[C@@H]2C(=O)O)C1 (some centres unmarked) [Argatroban monohydrate],Plate 1 (% inhibition),[3],-7.94%
same,Plate 1 (% conversion),[4],38.54%
CO[C@H]1O[C@@H]2O[C@@]3(C)CC[C@H]4[C@H](C)CC[C@@H]([C@H]1C)[C@@]24OO3 [Artemether],Plate 1 (% inhibition),[3],-9.16%
same,Plate 1 (% conversion),[4],38.95%
CC1=C(/C=C/C(C)=C/C=C/C(C)=C/C=C/C=C(C)/C=C/C=C(C)/C=C/C2=C(C)C(=O)[C@@H](O)CC2(C)C)C(C)(C)C[C@H](O)C1=O [Astaxanthin],Plate 1 (% inhibition),[3],-2.40%
same,Plate 1 (% conversion),[4],36.68%
CC(C)c1c(C(=O)Nc2ccccc2)c(-c2ccccc2)c(-c2ccc(F)cc2)n1CC[C@@H](O)C[C@@H](O)CC(=O)O [Atorvastatin calcium salt trihydrate],Plate 1 (% inhibition),[3],1.55%
same,Plate 5 (% inhibition),,17.18%
C[N+]1(C)[C@@H]2CC[C@H]1C[C@@H](OC(=O)C(CO)c1ccccc1)C2 (some centres unmarked) [Atropine methyl bromide],Plate 1 (% inhibition),[3],-14.40%
same,Plate 1 (% conversion),[4],40.71%
C[N+]1(C)[C@@H]2CC[C@H]1C[C@@H](OC(=O)C(CO)c1ccccc1)C2 (some centres unmarked) [Atropine methyl nitrate],Plate 1 (% inhibition),[3],2.78%
same,Plate 1 (% conversion),[4],34.94%
CN1[C@@H]2CC[C@H]1C[C@@H](OC(=O)C(CO)c1ccccc1)C2 (some centres unmarked) [Atropine sulfate],Plate 1 (% inhibition),,2.77%
CC(=O)OC[C@H]1O[C@@H]([S-])[C@H](OC(C)=O)[C@@H](OC(C)=O)[C@@H]1OC(C)=O.CCP(CC)CC.[Au+] [Auranofin],% conversion,,18.61%
same,% inhibition,20 µM,52.32%
CC(C)=CCC/C(C)=C/COc1ccc2ccc(=O)oc2c1 [Auraptene],% conversion,[2],37.42%
"O=C(O)C1=CC(=C(c2ccc(O)c(C(=O)O)c2)c2ccc(O)c(C(=O)O)c2)C=CC1=O [Aurintricarboxylic acid, reference compound]",inhibition at 20 µM,"AspH activity, fixed compound concentration 20 μM, initial LOPAC screen, 0.5%v/v DMSO, read-out: Inhibition at 20 µM [%]",104%
same,Plate 1 (% inhibition),[3],103.81%
same,Plate 1 (% conversion),[4],1.01%
OC[C@H]1O[C@H]([S-])[C@H](O)[C@@H](O)[C@@H]1O.[Au+] [Aurothioglucose],Plate 3 (% conversion),,23.41%
CC(C)c1cc(C(C)C)c(CC(=O)NS(=O)(=O)Oc2c(C(C)C)cccc2C(C)C)c(C(C)C)c1 [Avasimibe],Plate 5 (% inhibition),,73.14%
same,Plate 5 (% conversion),,11.42%
CCCCCCCCCCCCCCCCCCN(CCCCCCCCCCCCCCCCCC)CCCN(CCO)CCO [Avridine],% conversion,[2],28.90%
same,Plate 5 (% inhibition),,10.21%
same,Plate 5 (% conversion),,32.84%
CNC(=O)c1ccccc1Sc1ccc2c(/C=C/c3ccccn3)n[nH]c2c1 [Axitinib],Plate 5 (% inhibition),,-7.77%
same,Plate 5 (% conversion),,38.96%
Cn1cnc([N+](=O)[O-])c1Sc1ncnc2nc[nH]c12 [Azathioprine],Plate 1 (% inhibition),[3],-17.98%
same,Plate 1 (% conversion),[4],41.91%
O=C(O)CCCCCCCC(=O)O [Azelaic acid],Plate 1 (% inhibition),[3],11.13%
same,Plate 1 (% conversion),[4],32.14%
CC[C@H]1OC(=O)[C@H](C)[C@@H](O[C@H]2C[C@@](C)(OC)[C@@H](O)[C@H](C)O2)[C@H](C)[C@@H](O[C@@H]2O[C@H](C)C[C@H](N(C)C)[C@H]2O)[C@](C)(O)C[C@@H](C)CN(C)[C@H](C)[C@@H](O)[C@]1(C)O [Azithromycin dihydrate],Plate 1 (% inhibition),[3],-13.45%
same,Plate 1 (% conversion),[4],40.39%
CC[C@H]1OC(=O)[C@H](C)[C@@H](O[C@H]2C[C@@](C)(OC)[C@@H](O)[C@H](C)O2)[C@H](C)[C@@H](O[C@@H]2O[C@H](C)C[C@H](N(C)C)[C@H]2O)[C@](C)(O)C[C@@H](C)CN(C)[C@H](C)[C@@H](O)[C@]1(C)O [Azithromycin],Plate 5 (% inhibition),,-3.13%
same,Plate 5 (% conversion),,37.38%
CCN1CCc2nc(N)oc2CC1.Cl.Cl [B-HT 933 dihydrochloride],Plate 1 (% inhibition),[3],-9.80%
same,Plate 1 (% conversion),[4],39.16%
COc1ccc(-c2cc3nccn3c(Nc3ncccc3C(N)=O)n2)cc1OC.Cl.O [BAY 61-3606 hydrochloride hydrate],% conversion,[2],33.04%
Nc1ccc(-c2ccc3ccccc3n2)cc1 [BF-170 hydrochloride],% inhibition,[1],-2.46%
same,% conversion,[2],37.31%
CC(=O)O[C@H]1Cc2ccccc2N(C(N)=O)c2ccccc21 [BIA 2-093],% conversion,[2],30.46%
COc1cc2nc(N3CCCN(C)CC3)nc(NC3CCN(Cc4ccccc4)CC3)c2cc1OC [BIX 01294 trihydrochloride hydrate],% inhibition,[1],-9.31%
same,% conversion,[2],39.65%
C[C@H](c1ccc(F)cc1CCCC(=O)O)N(c1cc(F)ccc1F)S(=O)(=O)c1ccc(Cl)cc1 [BMS-299897],% inhibition,[1],-0.66%
same,% conversion,[2],36.70%
COc1ccccc1N1CCN(CCN2C(=O)CC3(CCCC3)CC2=O)CC1.Cl.Cl [BMY 7378 dihydrochloride],Plate 1 (% inhibition),[3],-11.73%
same,Plate 1 (% conversion),[4],39.81%
COc1ccccc1N1CCN(CCCCNC(=O)c2ccc3ccccc3c2)CC1 [BP 897],Plate 1 (% inhibition),[3],-9.00%
same,Plate 1 (% conversion),[4],38.89%
C[C@H](Cc1ccc(OCC(=O)[O-])cc1)NC[C@H](O)c1cccc(Cl)c1.[Na+] [BRL 37344 sodium],Plate 1 (% inhibition),[3],4.03%
same,Plate 1 (% conversion),[4],34.52%
Cc1ccc([N+](=O)[O-])cc1S(=O)(=O)N(C)C [BRL 50481],Plate 1 (% conversion),,38.84%
same,Plate 1 (% inhibition),,-8.84%
CN1CCC(c2c[nH]c3ccc(O)cc23)CC1.O=C(O)/C=C\C(=O)O [BRL 54443 maleate],Plate 1 (% conversion),,33.54%
same,Plate 1 (% inhibition),,6.94%
Cl.c1ccc2sc(C3(N4CCCCC4)CCCCC3)cc2c1 [BTCP hydrochloride],Plate 1 (% conversion),,41.13%
same,Plate 1 (% inhibition),,-15.64%
N#Cc1cc([N+](=O)[O-])c2sc(C(N)=O)[n+]([O-])c2c1 [BTO-1],Plate 1 (% inhibition),[3],-2.18%
same,Plate 1 (% conversion),[4],36.60%
Cl.c1ccc2nc(C3=NCCN3)ccc2c1 [BU224 hydrochloride],Plate 1 (% inhibition),[3],-5.25%
same,Plate 1 (% conversion),[4],37.63%
C=CC[N+](C)(C)c1ccc(CCC(=O)CCc2ccc([N+](C)(C)CC=C)cc2)cc1.[Br-].[Br-] [BW 284c51],Plate 1 (% conversion),,38.38%
same,Plate 1 (% inhibition),,-7.47%
CC(N)Cc1c[nH]c2ccc(OCc3cccs3)cc12 (centres unmarked) [BW 723C86],Plate 3 (% conversion),,36.52%
CC(/C=C/c1cccc(Oc2ccc(F)cc2)c1)N(O)C(N)=O (centres unmarked) [BWB70C],Plate 1 (% inhibition),[3],-3.19%
same,Plate 1 (% conversion),[4],36.94%
Cc1ccc(S(=O)(=O)/C=C/C#N)cc1 [Bay 11-7082],% conversion,[2],24.61%
CC(C)(C)c1ccc(S(=O)(=O)/C=C/C#N)cc1 [Bay 11-7085],Plate 1 (% conversion),,32.72%
same,Plate 1 (% inhibition),,9.38%
